Test results as given in patent US5683999A, “Cyclic urea HIV protease inhibitors” (The DuPont Merck Pharmaceutical Company, priority 1996, dated 1997).
In brackets after ≈: the same amount, converted by molar mass.

Tested on: HIV-1 (RF)
Experiment: HIV RNA Assay (HIV-1 infected MT-2 cells)
Assay type: cell-based
Settings: Human immunodeficiency virus 1, MT2, 72 h; HIV-1 (RF) infected MT-2 cells, 3 days of culture; read-out: IC90 value (concentration of compound required to reduce the HIV RNA level by 90%)
Method: DNA Plasmids and in vitro RNA transcripts
Plasmid pDAB 72 containing both gag and pol sequences of BH10 (bp 113-1816) cloned into PTZ 19R was prepared according to Erickson-Viitanen et al., AIDS Research and Human Retroviruses (1989) 5:577. The plasmid was linearized with Bam HI prior to the generation of in vitro RNA transcripts using the Riboprobe Gemini system II kit (Promega) with T7 RNA polymerase. Synthesized RNA was purified by treatment with RNase free DNAse (Promega), phenol-chloroform extraction, and ethanol precipitation. RNA transcripts were dissolved in water, and stored a -70° C. The concentration of RNA was determined from the A260.
Biotinylated capture probes were purified by HPLC after synthesis on an Applied Biosystems (Foster City, Calif.) DNA synthesizer by addition of biotin to the 5' terminal end of the oligonucleotide, using the biotin-phosphoramidite reagent of Cocuzza, Tet. Lett. (1989) 30:6287. […]
MT-2, CEM, and H9 cells were maintained in RPMI 1640 supplemented with 5% fetal calf serum (FCS), 2 mM L-glutamine and 50 μg/mL gentamycin, all from Gibco. […] Infectious titers of HIV-1(RF) stocks were 1-3×10^7 PFU (plaque forming units)/mL as measured by plaque assay on MT-2 cells (see below). […]

IC90: 0.2 µg/mL (≈ 0.947 µM)
Compound: Nc1ccn([C@H]2CC[C@@H](CO)O2)c(=O)n1 [ddC, 2',3'-dideoxycytidine]
